Measurements as given in US7553618B2, “Method for determining human immunodeficiciency virus type 1 (HIV-1) hypersusceptibility to the protease inhibitor amprenavir” (Monogram Biosciences, Inc., priority 2002, dated 2009).

System: HIV-1 from patient plasma samples
Test: PHENOSENSE HIV phenotypic susceptibility assay, fold change in IC50 of patient virus versus NL4-3 reference virus
Format: cell-based
Settings: Patient IC50/reference (NL4-3) IC50; for Fold change (FC) in IC50, 10th percentile: 10th percentile of distribution over 1515 patient samples, hypersusceptibility cut-off; for Fold change (FC) in IC50, 90th percentile: 90th percentile of distribution over 1515 patient samples; for Fold change (FC) in IC50, mean: mean over 1515 patient samples without resistance-selected mutations; for Fold change (FC) in IC50, median: median over 1515 patient samples without resistance-selected mutations
Description: In a preferred embodiment, the phenotypic analysis is performed using PHENOSENSE™ (ViroLogic Inc., South San Francisco, Calif.). See Petropoulos et al., 2000, Antimicrob. Agents Chemother. 44:920-928; U.S. Pat. Nos. 5,837,464 and 6,242,187. PHENOSENSE™ is a phenotypic assay that achieves the benefits of phenotypic testing and overcomes the drawbacks of previous assays. Because the assay has been automated, PHENOSENSE™ offers higher throughput under controlled conditions. The result is an assay that accurately defines the susceptibility profile of a patient's HIV isolates to all currently available antiretroviral drugs, and delivers results directly to the physician within about 10 to about 15 days of sample receipt. PHENOSENSE™ is accurate and can obtain results with only one round of viral replication, thereby avoiding selection of subpopulations of virus. The results are quantitative, measuring varying degrees of drug susceptibility, and sensitive—the test can be performed on blood specimens with a viral load of about 500 copies/mL and can detect minority populations of some drug-resistant virus at concentrations of 10% or less of total viral population. Furthermore, the results are reproducible and can vary by less than about 1.4-2.5 fold, depending on the drug, in about 95% of the assays performed.
A resistance test vector (“RTV”) can then be constructed by incorporating the amplified viral gene sequences into a replication defective viral vector by using any method known in the art of incorporating gene sequences into a vector. In one embodiment, restrictions enzymes and conventional cloning methods are used. See Sambrook et al., 2001, Molecular Cloning: A Laboratory Manual, Cold Spring Harbor Laboratory, 3rd ed., NY; and Ausubel et al., 1989, Current Protocols in Molecular Biology, Greene Publishing Associates and Wiley Interscience, NY. In a preferred embodiment, ApaI and PinAI restriction enzymes are used. Preferably, the replication defective viral vector is the indicator gene viral vector (“IGVV”). In a preferred embodiment, the viral vector contains a means for detecting replication of the RTV. Preferably, the viral vector contains a luciferase expression cassette.
The assay can be performed by first co-transfecting host cells with RTV DNA and a plasmid that expresses the envelope proteins of another retrovirus, for example, amphotropic murine leukemia virus (MLV). Following transfection, virus particles can be harvested and used to infect fresh target cells. The completion of a single round of viral replication can be detected by the means for detecting replication contained in the vector. In a preferred embodiment, the completion of a single round of viral replication results in the production of luciferase. Serial concentrations of anti-viral agents can be added at either the transfection step or the infection step.
Susceptibility to the anti-viral agent can be measured by comparing the replication of the vector in the presence and absence of the anti-viral agent. For example, susceptibility to the anti-viral agent can be measured by comparing the luciferase activity in the presence and absence of the anti-viral agent. Susceptible viruses would produce low levels of luciferase activity in the presence of anti-viral agents, whereas viruses with reduced susceptibility would produce higher levels of luciferase activity.
In order to determine the relationship between an HIV-1 strain's protease sequence and its susceptibility to treatment with a protease inhibitor, a data set of patient plasma samples was analyzed genotypically as well as phenotypically. The phenotypic assay was conducted using the PHENOSENSE™ (Virologic, South San Francisco, Calif.) HIV assay (Petropoulos et al., 2000, Antimicrob. Agents Chemother. 44:920-928; U.S. Pat. Nos. 5,837,464 and 6,242,187). Plasma samples were collected from HIV-1-infected patients. […]

CC(C)CN(C[C@@H](O)[C@H](Cc1ccccc1)NC(=O)O[C@H]1CCOC1)S(=O)(=O)c1ccc(N)cc1 [APV, amprenavir]
Fold change (FC) in IC50, 10th percentile: 0.35 | Fold change (FC) in IC50, 90th percentile: 1.32 | Fold change (FC) in IC50, mean: 0.69 | Fold change (FC) in IC50, median: 0.71

CC(C)(C)NC(=O)[C@@H]1CN(Cc2cccnc2)CCN1C[C@@H](O)C[C@@H](Cc1ccccc1)C(=O)N[C@H]1c2ccccc2C[C@H]1O [IDV, indinavir]
Fold change (FC) in IC50, 10th percentile: 0.44 | Fold change (FC) in IC50, 90th percentile: 1.35 | Fold change (FC) in IC50, mean: 0.78 | Fold change (FC) in IC50, median: 0.78

Cc1cccc(C)c1OCC(=O)N[C@@H](Cc1ccccc1)[C@@H](O)C[C@H](Cc1ccccc1)NC(=O)[C@H](C(C)C)N1CCCNC1=O [LPV, lopinavir]
Fold change (FC) in IC50, 10th percentile: 0.40 | Fold change (FC) in IC50, 90th percentile: 1.15 | Fold change (FC) in IC50, mean: 0.68 | Fold change (FC) in IC50, median: 0.69

Cc1c(O)cccc1C(=O)N[C@@H](CSc1ccccc1)[C@H](O)CN1C[C@H]2CCCC[C@H]2C[C@H]1C(=O)NC(C)(C)C [NFV, nelfinavir]
Fold change (FC) in IC50, 10th percentile: 0.54 | Fold change (FC) in IC50, 90th percentile: 2.09 | Fold change (FC) in IC50, mean: 1.05 | Fold change (FC) in IC50, median: 1.05

CC(C)c1nc(CN(C)C(=O)N[C@H](C(=O)N[C@@H](Cc2ccccc2)C[C@H](O)[C@H](Cc2ccccc2)NC(=O)OCc2cncs2)C(C)C)cs1 [RTV, ritonavir]
Fold change (FC) in IC50, 10th percentile: 0.45 | Fold change (FC) in IC50, 90th percentile: 1.55 | Fold change (FC) in IC50, mean: 0.82 | Fold change (FC) in IC50, median: 0.81

CC(C)(C)NC(=O)[C@@H]1C[C@@H]2CCCC[C@@H]2CN1C[C@@H](O)[C@H](Cc1ccccc1)NC(=O)[C@H](CC(N)=O)NC(=O)c1ccc2ccccc2n1 [SQV, saquinavir]
Fold change (FC) in IC50, 10th percentile: 0.44 | Fold change (FC) in IC50, 90th percentile: 1.12 | Fold change (FC) in IC50, mean: 0.70 | Fold change (FC) in IC50, median: 0.71
